# Patent US20100152240A1, “PYRROLINE-2-ONE DERIVATIVES AGAINST CELL RELEASING TUMOR NECROSIS FACTOR, PREPARATION METHODS AND USES THEREOF” (priority 2006, published 2010)
# Test system: TNFα released by PBMCs stimulated by LPS
# Assay: Inhibition of the release of TNFα in peripheral blood mononuclear cells (PBMCs) stimulated by lipopolysaccharide (LPS), ELISA
# Type: cell-based, human
# Conditions: LPS 0.1 μg/mL, 20 hours incubation; for Inhibition Degree: compound concentration 3.0 μM; for EC50: concentration giving 50% TNFα inhibition
# Procedure: Pharmacological Research: Effects on the releasing of TNFα in peripheral blood mononuclear cells (PBMCs) stimulated by lipopolysaccharide (LPS).
# Cytokine TNFα released by PBMCs in the peripheral blood stimulated by lipid polysaccharide (LPS) in vitro was studied.
# PBMCs were collected from blood of at least three volunteers pretreated with heparin by a gradient separation method, and washed three times with a 1640 culture medium (10% calf serum, 2 mM L-glutamine, […] mercaptoethanol, 50 μg/mL streptomycin, and 50 U/mL penicillin). The obtained PBMCs were then placed into a 24-well cell culture plate and the concentration was adjusted to 1×10^6 cells/mL with 1640 culture medium. The compounds to be tested were dissolved in dimethylsulfoxide to obtain a solution having a required concentration. The solution was added to the above-mentioned cell culture medium and cultured in an incubator (5% CO2, 90% humidity) for 1 hour. Then, LPS (Sigma) was added until the concentration reached 0.1 μg/mL (except for the control).
# After 20 hours incubation, the content of TNFα in the supernatant of the PBMC culture medium was assayed by ELISA kit (America Genzyme Co) using standard method. The TNFα inhibition rate was calculated by measured value of the control well (not treated) and the measured value of the test wells (treated with the test compound). The concentration of compounds giving a 50% TNFα inhibition (IC50 value) was calculated using nonlinear regression analysis. Each concentration was determined twice and an average value was practicable.
Compound,Inhibition Degree,other results
"O=C1CCC(N2Cc3cscc3C2=O)C(=O)N1 (stereo not shown) [Example 9, 3-(4-oxo-4H-thiophene[3,4-c]pyrrol-5(6H)-yl)piperidine-2,6-dione]",32%,
"CN1C(=O)CCC(N2Cc3cscc3C2=O)C1=O (stereo not shown) [Example 10, 1-methyl-3-(4-oxo-4H-thiophene[3,4-c]pyrrol-5(6H)-yl)piperidine-2,6-dione]",28%,
"CCCN1C(=O)CCC(N2Cc3cscc3C2=O)C1=O (stereo not shown) [Example 11, 3-(4-oxo-4H-thiophene[3,4-c]pyrrol-5(6H)-yl)-1-propylpiperidine-2,6-dione]",22%,
"CC1(N2Cc3cscc3C2=O)CCC(=O)NC1=O (stereo not shown) [Example 16, 3-methyl-3-(4-oxo-4H-thiophene[3,4-c]pyrrole-5(6H)-yl)piperidine-2,6-dione]",38%,
"O=C1CCC(N2Cc3c(csc3[N+](=O)[O-])C2=O)C(=O)N1 (stereo not shown) [Example 17, 3-(1-nitro-4-oxo-4H-thiophene[3,4-c]pyrrole-5(6H)-yl)piperidine-2,6-dione]",19%,
"Nc1scc2c1CN(C1CCC(=O)NC1=O)C2=O (stereo not shown) [Example 18, 3-(1-amino-4-oxo-4H-thiophene[3,4-c]pyrrole-5(6H)-yl)piperidine-2,6-dione]",94%,EC50: 60 nM
"CC1(N2Cc3c(csc3N)C2=O)CCC(=O)NC1=O (stereo not shown) [Example 20, 3-methyl-3-(1-amino-4-oxo-4H-thiophene[3,4-c]pyrrole-5(6H)-yl)piperidine-2,6-dione]",76%,EC50: 180 nM
"O=C1CCC(N2Cc3ccsc3C2=O)C(=O)N1 (stereo not shown) [Example 33, 3-(6-oxo-4H-thiophene[3,2-c]pyrrole-5(6H)-yl)piperidine-2,6-dione]",47%,
"O=C1CCC(N2C(=O)c3cscc3C2=O)CN1 (stereo not shown) [Example 34, 5-(6-oxo-piperidine-3-yl)-5H-thiophene[3,4-c]pyrrole-4,6-dione]",18%,
"O=C1CCC(N2C(=O)c3ccccc3C2=O)C(=O)N1 (stereo not shown) [Thalidomide, reference compound]",,"inhibition at 100 µM (Homo sapiens, PBMC, compound concentration 100 μM, read-out: Inhibition Degree): 22%; EC50 (Homo sapiens, PBMC): 183000 nM"
